Literature values, collected in US20230218693A1, “HEMP SPROUT PRODUCTS AND METHODS FOR PRODUCING SAME” (priority 2020, published 2023).
Like-named read-outs stand apart in the source and are kept apart here. One block for each molecule: values may come before it.

Experiments:
[1] = molecular target: T1, mPGES-1 (Homo sapiens, UniProt O14684)
T1 sequence (O14684 1-152): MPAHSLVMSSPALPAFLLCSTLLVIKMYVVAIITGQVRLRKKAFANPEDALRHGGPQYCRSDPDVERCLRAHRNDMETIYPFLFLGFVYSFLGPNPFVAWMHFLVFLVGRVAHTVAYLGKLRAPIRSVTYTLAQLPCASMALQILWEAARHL

[2] = molecular target: T2, cPLA2 (Homo sapiens, UniProt P47712); conditions: cPLA2, cell-free
T2 sequence (P47712 1-749): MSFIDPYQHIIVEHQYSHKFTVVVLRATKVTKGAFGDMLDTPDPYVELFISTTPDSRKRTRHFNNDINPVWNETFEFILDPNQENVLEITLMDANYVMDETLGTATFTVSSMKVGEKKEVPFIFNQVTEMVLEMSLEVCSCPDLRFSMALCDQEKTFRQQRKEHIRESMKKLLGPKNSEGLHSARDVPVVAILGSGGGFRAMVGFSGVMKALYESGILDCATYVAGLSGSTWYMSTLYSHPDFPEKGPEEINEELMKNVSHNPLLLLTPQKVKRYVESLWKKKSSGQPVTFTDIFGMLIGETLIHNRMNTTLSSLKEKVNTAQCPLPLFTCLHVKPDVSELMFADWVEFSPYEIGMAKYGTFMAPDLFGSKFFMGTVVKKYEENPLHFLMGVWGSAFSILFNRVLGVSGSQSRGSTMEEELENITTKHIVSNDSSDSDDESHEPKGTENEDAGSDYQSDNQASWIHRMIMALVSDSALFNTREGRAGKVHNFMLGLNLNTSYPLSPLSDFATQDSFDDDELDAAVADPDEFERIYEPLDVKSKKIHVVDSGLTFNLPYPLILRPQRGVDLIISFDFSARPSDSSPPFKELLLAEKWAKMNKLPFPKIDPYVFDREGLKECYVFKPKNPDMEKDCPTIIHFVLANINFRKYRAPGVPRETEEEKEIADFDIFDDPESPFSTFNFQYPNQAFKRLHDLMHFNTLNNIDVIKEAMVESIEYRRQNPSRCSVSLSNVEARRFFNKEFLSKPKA

[3] = molecular target: T3, COX-1 (Homo sapiens, UniProt P23219); conditions: COX-1, platelets
T3 construct: endogenous in cells; host or cells: freshly isolated human blood cells (platelets, according to the assay name)

[4] = molecular target: T4, COX-2 (Homo sapiens, UniProt P35354)
T4 sequence (P35354 18-604): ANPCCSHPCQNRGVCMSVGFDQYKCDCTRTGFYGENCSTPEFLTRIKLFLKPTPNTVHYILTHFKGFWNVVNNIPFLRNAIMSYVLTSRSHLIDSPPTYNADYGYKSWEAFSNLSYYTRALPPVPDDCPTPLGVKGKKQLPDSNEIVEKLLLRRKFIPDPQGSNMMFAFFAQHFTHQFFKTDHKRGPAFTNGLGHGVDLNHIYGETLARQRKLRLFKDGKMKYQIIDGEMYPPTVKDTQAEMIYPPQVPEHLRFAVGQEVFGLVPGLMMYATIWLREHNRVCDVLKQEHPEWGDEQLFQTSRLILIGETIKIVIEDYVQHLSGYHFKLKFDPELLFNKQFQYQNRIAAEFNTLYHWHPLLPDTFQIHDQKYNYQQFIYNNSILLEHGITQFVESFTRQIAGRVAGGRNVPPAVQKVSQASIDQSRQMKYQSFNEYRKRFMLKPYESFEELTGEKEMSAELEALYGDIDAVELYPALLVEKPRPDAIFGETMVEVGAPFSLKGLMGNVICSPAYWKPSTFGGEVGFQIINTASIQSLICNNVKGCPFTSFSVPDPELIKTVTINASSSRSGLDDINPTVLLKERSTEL

[5] = test system: freshly isolated human blood cells; conditions: for Effect on cell viability: human cells
[6] = molecular target: T5, 5-LO (Homo sapiens, UniProt P09917); conditions: 5-LO cell-free
T5 sequence (P09917 1-674): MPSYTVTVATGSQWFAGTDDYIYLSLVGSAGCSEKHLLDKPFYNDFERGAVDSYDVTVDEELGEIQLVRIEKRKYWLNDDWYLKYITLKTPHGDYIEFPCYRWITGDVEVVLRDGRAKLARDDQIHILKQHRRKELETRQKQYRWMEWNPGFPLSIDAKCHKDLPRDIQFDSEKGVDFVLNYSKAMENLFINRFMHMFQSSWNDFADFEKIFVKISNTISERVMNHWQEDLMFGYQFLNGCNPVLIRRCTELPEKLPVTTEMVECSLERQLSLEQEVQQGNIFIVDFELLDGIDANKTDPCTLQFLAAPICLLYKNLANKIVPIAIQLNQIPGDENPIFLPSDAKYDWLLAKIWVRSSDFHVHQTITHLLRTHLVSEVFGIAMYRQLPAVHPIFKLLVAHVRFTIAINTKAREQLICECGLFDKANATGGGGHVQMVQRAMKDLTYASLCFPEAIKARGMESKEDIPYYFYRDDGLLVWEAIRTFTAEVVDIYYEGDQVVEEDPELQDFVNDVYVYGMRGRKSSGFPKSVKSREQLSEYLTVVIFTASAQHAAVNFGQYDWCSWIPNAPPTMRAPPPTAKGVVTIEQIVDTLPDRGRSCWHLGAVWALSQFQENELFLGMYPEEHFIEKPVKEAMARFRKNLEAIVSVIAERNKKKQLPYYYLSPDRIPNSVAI

[7] = test system: COX-1
[8] = molecular target: T5, 5-LO; set-up: endogenous in cells; host or cells: freshly isolated human neutrophils (PMNL); conditions: PMNL
[9] = molecular target: T4, COX-2; set-up: endogenous in cells; host or cells: freshly isolated human monocytes; conditions: COX-2, monocytes
[10] = molecular target: T5, 5-LO; set-up: endogenous in cells; host or cells: freshly isolated human neutrophils (PMNL); conditions: PMNL, A23187 + AA
[11] = test system: PGE2; conditions: result in words
[12] = result in words
[13] = result in words; remark: listed apart in the source
[14] = test system: HepG2 human hepatic carcinoma cells; conditions: dose-dependently up to 500 μM

T3 sequence (P23219 24-599): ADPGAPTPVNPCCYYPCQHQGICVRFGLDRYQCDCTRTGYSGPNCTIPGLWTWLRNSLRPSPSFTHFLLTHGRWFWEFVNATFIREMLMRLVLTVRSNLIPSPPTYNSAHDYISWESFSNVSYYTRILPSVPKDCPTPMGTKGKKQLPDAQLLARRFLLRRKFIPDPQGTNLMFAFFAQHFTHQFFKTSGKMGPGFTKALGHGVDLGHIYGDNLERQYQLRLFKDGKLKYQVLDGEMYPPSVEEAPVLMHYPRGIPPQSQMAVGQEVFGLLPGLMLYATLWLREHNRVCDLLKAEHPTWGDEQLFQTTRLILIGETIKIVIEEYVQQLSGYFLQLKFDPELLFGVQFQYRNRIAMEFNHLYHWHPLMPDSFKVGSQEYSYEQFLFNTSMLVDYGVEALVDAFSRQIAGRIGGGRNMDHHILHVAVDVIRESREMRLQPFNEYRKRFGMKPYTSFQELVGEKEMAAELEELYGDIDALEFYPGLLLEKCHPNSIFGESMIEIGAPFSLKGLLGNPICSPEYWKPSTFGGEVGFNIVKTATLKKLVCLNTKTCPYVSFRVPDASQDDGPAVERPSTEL

% inhibition at 10 μM ([1]; mPGES-1, cell-free, 10 μM): 90 ± 1%
IC50 ([1]; mPGES-1, cell-free, read-out: CFA(1) IC50): 1800 nM
Inhibition of mPGES-1 ([1]; result in words): directly inhibited mPGES-1
% inhibition at 10 μM ([2]; 10 μM): 26 ± 8%
IC50 ([2]; read-out: CFA(1) IC50): > 10 µM
% inhibition at 10 μM ([3]; 10 μM, vs vehicle (0.1% DMSO)): 26 ± 2%
IC50 ([3]; added 15 min prior induction, read-out: CFA(1) IC50): > 10 µM
% inhibition at 10 μM ([4]; COX-2, cell-free, 10 μM): 35 ± 12%
IC50 ([4]; COX-2, cell-free, read-out: CFA(1) IC50): > 10 µM
Inhibition of COX-2 ([4]; result in words): did not significantly inhibit COX-2
% inhibition at 10 μM ([6]; 10 μM): 88 ± 3%
IC50 ([6]; read-out: CFA(1) IC50): 900 nM
IC50 ([7]; COX-1, cell-free, read-out: CFA(1) IC50): > 10 µM
% inhibition at 10 μM ([8]; A23187, 10 μM): 98 ± 2%
IC50 ([8]; A23187, read-out: CFA(1) IC50): 2400 nM
% inhibition at 10 μM ([9]; 10 μM): 56 ± 8%
IC50 ([9]; read-out: CFA(1) IC50): 8.8 µM
% inhibition at 10 μM ([10]; 10 μM): 91 ± 1%
IC50 ([10]; read-out: CFA(1) IC50): 1600 nM
Structure (SMILES): COc1cc(-c2cc(=O)c3c(O)c(C/C=C(\C)CCC=C(C)C)c(O)cc3o2)ccc1O [CFA, Cannflavin A]
Effect in DPPH assay (antioxidant activity): No effect
Effect in DPPH assay (antioxidant activity) (listed as cannflavin A): did not demonstrate innate antioxidant activity
Effect on cell viability [5]: no effect
Effect on cell viability ([5]; listed as cannflavin A): no deleterious effects on human cell viability
Cytotoxicity ([5]; result in words): no evidence of cytotoxicity
% inhibition at 10 μM ([7]; COX-1, cell-free, 10 μM): 36 ± 2%
Inhibition of COX-1 ([7]; result in words): did not significantly inhibit COX-1
Suppression of PGE2 [11]: suppressed PGE2

Structure (SMILES): COc1ccc2c(c1)c(CC(=O)O)c(C)n2C(=O)c1ccc(Cl)cc1 [Indomethacin, reference compound]
Reference control, % inhibition at indic. conc. ([7]; COX-1, cell-free, 20 μM): Indomethacin (20 μM), 81 ± 8%

Reference control, % inhibition at indic. conc. ([6]; 3 μM): Zileuton (3 μM), 80 ± 4%
Structure (SMILES): CC(c1cc2ccccc2s1)N(O)C(N)=O (stereo not shown) [Zileuton, reference compound]

Structure (SMILES): O=C(/C=C/c1ccc(O)c(O)c1)NCCc1ccc(O)cc1 [caffeoyltyramine]
Antioxidant activity against DPPH radicals [12]: demonstrated antioxidant activity against DPPH radicals
Inhibition of human LDL oxidation [13]: prominent inhibition of human LDL oxidation

Structure (SMILES): O=C(NCCc1ccc(O)cc1)C1=Cc2cc(O)c(O)cc2[C@H](c2ccc(O)c(O)c2)[C@H]1C(=O)NCCc1ccc(O)cc1 [cannabisin B]
Antioxidant activity against DPPH radicals [12]: demonstrated antioxidant activity against DPPH radicals
Antiproliferative effects in HepG2 cells [14]: produced antiproliferative effects
Inhibition of human LDL oxidation [13]: prominent inhibition of human LDL oxidation
